The results in this text go back to US4563452A, “Derivatives of oxazinobenzothiazine-6,6-dioxide” (Provesan S.A., priority 1982, dated 1986).

Broadly, the IC50 is the concentration that gives 50% inhibition. A low value points to inhibition by little substance.

Where two headings read alike, the source gives them in different places. Bounds are passed on as bounds.

For experiment [1], the system named is pain induced by acetyl choline. In words: Analgesic activity with respect to the pain induced by acetyl choline (contortions), method of Collier. Type of experiment: in vivo, Male mice of the Swiss strain. Particulars: Mus musculus, po, dose which reduces the number of contortions to half the initial value. The method, then: Analgesic activity with respect to the pain induced by acetyl choline
Method developed by Collier (Collier, H. O. W. Dinneen, L. C. Johnson, C. A. and Schneider, C.--Br. J. Pharmac. Chemother., 32, 295-310 (1968)).
Male mice of the Swiss strain are used, weighing from 20 to 25 g. The mice are put into individual cages. A volume of 0.2 ml/20 g of a solution of acetyl choline bromide of 0.32 mg/ml is administered intraperitoneally to each animal. Thus, the injected dose of acetyl choline bromide is 3.2 mg/kg. The number of contortions or stretches performed by each mouse is counted over a period of 5 minutes. After 5 minutes, the products are administered using 5% gum arabic as a vehicle. After 40 and 120 minutes of administration of the products, another injection of acetyl choline is given and the number of contortions which are observed over a period of 5 minutes is counted.
The percentage of inhibition of the number of contortions after 40 and 120 minutes is calculated for each animal using the following formulae: [formula] wherein: NO =number of contortions before the product is administered
N40 =number of contortions 40 minutes after administration of the product
N120 =number of contortions 120 minutes after administration of the product.
The percentage of inhibition of the contortions is directly proportional to the logarithm of the administered dose. The dose which reduces the number of contortions to half the initial value (ED-50) is obtained from the curve of dose logarithm-% effect.

The test system of experiment [2] is oedema produced by carrageenin. Briefly: Anti-inflammatory activity (inhibition of oedema produced by carrageenin), method of Winter. The format is in vivo, Male rats of the Sprague-Dawley HC/CEY strain. The following applies: Rattus norvegicus, oral, 1 hour before carrageenin, ED-50 = dose which reduces the oedema volume by 25%. On the procedure: ANTI-INFLAMMATORY ACTIVITY (INHIBITION OF OEDEMA PRODUCED BY CARRAGEENIN)
Method developed by Winter (Winter, C. A., Risley, E. A. and Nuss, G. W. Proc. Soc. Exp. Biol. Med., […] (1962)).
Male rats of the Sprague-Dawley HC/CEY strain are used, weighing from 90 to 110 g. The products are administered suspended in 5% gum arabic, by an oral method using an oesophageal probe, 1 hour before a subplantar injection in the right foot of each animal of 0.1 ml of 1% carrageenin suspension in physiological serum (NaCl 0.9%). The control animals are given 5% gum arabic, the total volume which is used in every case amounting to 10 ml/kg.
The volume of each foot is measured immediately before the carrageenin injection (time 0), then three and five hours after this injection using a mercury plethysmograph.
The inflammation index is calculated for each animal after 3 hours (I3) and after 5 hours (I5) after the carrageenin injection by means of the following formulae: [formula] wherein: VO =volume of the foot at time zero (immediately before the administration of carrageenin)
V3 =volume of the foot 3 hours after the injection of carrageenin
V5 =volume of the foot 5 hours after the injection of carrageenin.
The average inflammation index is calculated for the control batch after 3 hours (It3) and after 5 hours (It5).
The percentage of inhibition of the oedema (anti-inflammatory activity) is calculated for each animal by means of the formulae: [formula] wherein: A3 =anti-inflammatory activity in percentage of inhibition of the oedema after 3 hours
A5 =anti-inflammatory activity in percentage of inhibition of the oedema after 5 hours.
The anti-inflammatory activity is proportional to the logarithm of the administered dose. The dose which reduces the volume of the odema by 25% is obtained from the curve of dose logarithm-% effect. This dose is adopted as ED-50, since the maximum effect which is achieved is the reduction of the oedema by 50%.

Experiment [3] deals with T1, prostaglandin-synthetase (1.14.99.1) (Bos taurus, UniProt O62664).
T1 construct: Prostaglandin-Synthetase of Seminal Vesicle of Cattle; from tissue; host or cells: seminal vesicle of cattle
T1 sequence (O62664 25-600): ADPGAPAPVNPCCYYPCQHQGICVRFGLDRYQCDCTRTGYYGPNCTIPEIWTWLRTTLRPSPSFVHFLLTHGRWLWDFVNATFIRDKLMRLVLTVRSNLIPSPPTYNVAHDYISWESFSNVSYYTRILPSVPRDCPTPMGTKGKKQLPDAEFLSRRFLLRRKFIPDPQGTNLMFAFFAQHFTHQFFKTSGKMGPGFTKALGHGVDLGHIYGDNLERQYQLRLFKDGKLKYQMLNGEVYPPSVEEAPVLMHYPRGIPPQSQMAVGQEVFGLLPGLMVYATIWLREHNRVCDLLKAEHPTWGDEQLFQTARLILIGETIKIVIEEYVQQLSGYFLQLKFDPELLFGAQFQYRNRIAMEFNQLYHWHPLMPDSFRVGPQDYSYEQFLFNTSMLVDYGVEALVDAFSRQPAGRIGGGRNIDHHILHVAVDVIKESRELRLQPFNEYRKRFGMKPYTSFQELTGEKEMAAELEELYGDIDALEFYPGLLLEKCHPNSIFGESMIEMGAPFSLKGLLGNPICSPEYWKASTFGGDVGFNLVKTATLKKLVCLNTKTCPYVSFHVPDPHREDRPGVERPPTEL
Briefly: Inhibition of the prostaglandin-synthetase of seminal vesicle of cattle, method of Yoshimoto. The format is biochemical. The following applies: in vitro; 37° C., 5 minutes contact of enzyme with product, then 10 minutes incubation with arachidonic acid; pH 8.0.
Protocol: Inhibition of the Prostaglandin-Synthetase of Seminal Vesicle of Cattle
The activity of the prostaglandin-synthetase (1.14.99.1) is determined by measuring the increases in absorbance at 278 nm due to the formation of prostaglandin B from prostaglandin E in an alkaline medium.
The incubation temperature was 37±0.1° C. in every case.
0.5 ml of substrate solution (0.6 mg of arachidonic acid in 10 ml of buffer) and 0.5 ml of buffer are added to 1.5 ml of cofactor solution (0.55 mg of hydroquinone+0.5 mg of hemoglobin+7.7 mg of glutathione in 12 ml of 0.2M Tris-HCl buffer of pH 8.0), containing 10 mg of enzyme, and the mixture is incubated at 37° C. for 10 minutes. The enzymatic reaction is stopped by the addition of 1.5 ml of 0.2M citric acid and the pGE is extracted with 2×5 ml of ethyl acetate. The organic phase is evaporated under a stream of nitrogen at 40° C. and the residue is redissolved in 2 ml of methanol and 0.5 ml of 3M potassium hydroxide. Finally, the absorptions at 278 nm are measured with respect to a blank to which 0.5 ml of buffer are added instead of 0.5 ml of substrate solution.
The enzymatic activity is expressed as an increase in the optical density for 10 minutes of reaction.
The subsequent stages are identical to those which have already been described. […]

The mark [4] stands for this setting: 40 min, 40 minutes after administration, read-out: ED-50 40 min.
[5] abbreviates: 2 h, 120 minutes after administration, read-out: ED-50 120 min.
The mark [6] stands for this setting: 3 hours after carrageenin injection, read-out: ED-50 3 hours.
Where [7] appears, read: 5 hours after carrageenin injection, read-out: ED-50 5 hours.

On to `Cc1cccc(-n2c(=O)oc3c(c2=O)N(C)S(=O)(=O)c2ccccc2-3)n1` [Example 7, 5-methyl-3-[2-(6-methylpyridyl)]-2H,5H-1,3-oxazino[5,6-c][1,2]benzothiazine-2,4-(3H)dione-6,6-dioxide], for which the ED50 in experiment [1] (setting [4]) was 7.5 mg/kg; in experiment [1] (setting [5]) it was 10 mg/kg; in experiment [2] (setting [6]), 20 mg/kg; in experiment [2] (setting [7]), 25 mg/kg.

Turning to `CN1c2c(oc(=O)n(-c3ccccn3)c2=O)-c2ccccc2S1(=O)=O` [Example 2, 5-methyl-3-(2-pyridyl)-2H,5H-1,3-oxazino[5,6-c][1,2]benzothiazine-2,4-(3H)dione-6,6-dioxide], the ED50 in experiment [1] (setting [4]) came to 1.8 mg/kg; in experiment [1] (setting [5]), 1.1 mg/kg; in experiment [2] (setting [6]), 2.3 mg/kg; in experiment [2] (setting [7]), 2.6 mg/kg. The compound further showed a concentration for half-maximal inhibition (IC50) in experiment [3] of 100 µM.

With `Cc1cc(-n2c(=O)oc3c(c2=O)N(C)S(=O)(=O)c2ccccc2-3)no1` [Example 4, 5-methyl-3-[3-(5-methylisoxazolyl)]-2H,5H-1,3-oxazino[5,6-c][1,2]benzothiazine-2,4-(3H)dione-6,6-dioxide], the ED50 in experiment [1] (setting [4]) amounted to 154 mg/kg; in experiment [1] (setting [5]) it was 154 mg/kg; in experiment [2] (setting [6]), 38 mg/kg; in experiment [2] (setting [7]) it was 39 mg/kg.

For the compound `CCN1c2c(oc(=O)n(-c3ccccn3)c2=O)-c2ccccc2S1(=O)=O` [Example 1, 5-ethyl-3-(2-pyridyl)-2H,5H-1,3-oxazino[5,6-c][1,2]benzothiazine-2,4-(3H)dione-6,6-dioxide], the ED50 in experiment [1] (setting [4]) is greater than 160 mg/kg; in experiment [1] (setting [5]), greater than 160 mg/kg; in experiment [2] (setting [6]), greater than 40 mg/kg; in experiment [2] (setting [7]) it was greater than 40 mg/kg.

`CN1c2c(oc(=O)n(-c3ncccn3)c2=O)-c2ccccc2S1(=O)=O` [Example 5, 5-methyl-3-(2-pyrimidinyl)-2H,5H-1,3-oxazino[5,6-c][1,2]benzothiazine-2,4-(3H)dione-6,6-dioxide]: the ED50 is greater than 160 mg/kg in experiment [1] (setting [4]), greater than 160 mg/kg in experiment [1] (setting [5]), greater than 40 mg/kg in experiment [2] (setting [6]) and greater than 40 mg/kg in experiment [2] (setting [7]).

`CCCCC1C(=O)N(c2ccccc2)N(c2ccccc2)C1=O` [Phenylbutazone, reference compound]: the ED50 in experiment [1] (setting [4]) came to 40 mg/kg; in experiment [1] (setting [5]) it was 35 mg/kg; in experiment [2] (setting [6]), 17 mg/kg; in experiment [2] (setting [7]), 17 mg/kg. Moreover, the IC50 in experiment [3] came to 300 µM.

For the compound `Cc1ccnc(-n2c(=O)oc3c(c2=O)N(C)S(=O)(=O)c2ccccc2-3)c1` [Example 6, 5-methyl-3-[2-(4-methylpyridyl)]-2H,5H-1,3-oxazino[5,6-c][1,2]benzothiazine-2,4-(3H)dione-6,6-dioxide], the ED50 in experiment [1] (setting [4]) was greater than 160 mg/kg; in experiment [1] (setting [5]), greater than 160 mg/kg; in experiment [2] (setting [6]) it was greater than 40 mg/kg; in experiment [2] (setting [7]), greater than 40 mg/kg.

As for `CN1c2c(oc(=S)n(-c3ccccn3)c2=O)-c2ccccc2S1(=O)=O` [Example 3, 5-methyl-3-(2-pyridyl)-2H,5H-1,3-oxazino[5,6-c][1,2]benzothiazine-2(3H)thione-4-one-6,6-dioxide], the ED50 in experiment [1] (setting [4]) was 25 mg/kg; in experiment [1] (setting [5]), 25 mg/kg; in experiment [2] (setting [6]), greater than 40 mg/kg; in experiment [2] (setting [7]), greater than 40 mg/kg.
